Values quoted from earlier work, collected in patent US20110223150A1, “Neutraceutical-Based Topical Anxiolytic Agent and Method of Use” (priority 2009, published 2011).
Read-outs that look alike come from different tables or passages of the source.

Legend:
mice = details: i.p. in mice
rats [1] = test system: rats
rats [2] = details: chronic administration of 50 mg/kg
[3] = test system: spontaneously hypertensive rats (SHR); details: dose-dependent

| Molecule | LD50 (mice) [mg/kg] | LD50 (rats [1]; i.p. in rats) [mg/kg] | LD50 (rats [1]; rats, method of administration not given) [mg/kg] | teratogenic effects (rats [2]) | time until alpha waves were observed (occipital and parietal regions) (alpha brain waves; 50 or 200 mg of L-theanine) [min] | time to sense of relaxation after ingestion (alpha brain waves; after ingestion) [min] | time after which intensity of alpha waves was detectable (alpha brain waves; separate study, dose dependent, 200 mg significant over controls) [min] | blood pressure effect [3] |
| --- | --- | --- | --- | --- | --- | --- | --- | --- |
| NCC(CC(=O)O)c1ccccc1 (stereo not drawn) [Phenibut, beta-phenyl-gamma-aminobutyric acid] | 900 | 700 | 1000 | did not have teratogenic effects |  |  |  |  |
| gamma-ethylamino-L-glutamic acid [L-theanine] |  |  |  |  | ≤ 40 | 30 to 40 | 30 | blood pressure lowering effect |
| NC(=O)CC[C@H](N)C(=O)O [L-glutamine] |  |  |  |  |  |  |  | did not exhibit an anti-hypertensive effect |
